Experiments:
Assay type in all cases: cell-based
Proteus mirabilis = test: MIC against Gram-negative bacteria: Proteus mirabilis; conditions: for MIC against P. mirabilis: 96-well plate, 37° C., 10 h
Method in brief: (§1)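 First, colonies from LB agar were grown in LB at 37° C, 185 rpm, to McFarland turbidity 0.5, then centrifuged and resuspended in fresh LB. Next, wells received 5×10^5 CFU/mL bacteria plus two-fold serially diluted EGF domain protein (triplicate). Finally, plates were shaken at 37° C and the no-growth concentration taken as MIC.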

Pseudomonas aeruginosa = test: MIC against Gram-negative bacteria: Pseudomonas aeruginosa; conditions: for MIC against P. aeruginosa: 96-well plate, 37° C., 10 h
Method in brief: as §1

E. coli DH5α = test: Antibacterial activity: MIC and growth curve against E. coli DH5α in 96-well plate; conditions: minimal inhibitory concentration against E. coli DH5α; 96-well plate, 5×10^5 CFU/mL, 37° C., judged after 8 h
Method in brief: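 Log-phase bacteria (OD600 ~0.5) resuspended in LB at 5×10^5 CFU/mL, exposed to recombinant protein at 50, 25, 12.5 μg/mL final in triplicate, 37 °C shaking at 175 rpm. OD600 read every 30 min; MIC is lowest concentration showing no growth.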

Moraxella catarrhalis = test: MIC against Gram-negative bacteria: Moraxella catarrhalis; conditions: for MIC against M. catarrhalis: 96-well plate, 37° C., 10 h
Method in brief: as §1

Aeromonas hydrophila = test: MIC against Gram-negative bacteria: Aeromonas hydrophila; conditions: for MIC against A. hydrophila: 96-well plate, 37° C., 10 h
Method in brief: as §1

Enterobacter cloacae = test: MIC against Gram-negative bacteria: Enterobacter cloacae; conditions: for MIC against E. cloacae: 96-well plate, 37° C., 10 h
Method in brief: as §1

E. coli BL21 = test: MIC against Gram-negative bacteria: E. coli BL21; conditions: for MIC against E. coli BL21: 96-well plate, 37° C., 10 h
Method in brief: as §1

Proteus vulgaris = test: MIC against Gram-negative bacteria: Proteus vulgaris; conditions: for MIC against P. vulgaris: 96-well plate, 37° C., 10 h
Method in brief: as §1

Klebsiella pneumonia = test: MIC against Gram-negative bacteria: Klebsiella pneumonia; conditions: for MIC against K. pneumonia: 96-well plate, 37° C., 10 h
Method in brief: as §1

Citrobacter diversus = test: MIC against Gram-negative bacteria: Citrobacter diversus; conditions: for MIC against C. diversus: 96-well plate, 37° C., 10 h
Method in brief: as §1

Serratia marcescens = test: MIC against Gram-negative bacteria: Serratia marcescens; conditions: for MIC against S. marcescens: 96-well plate, 37° C., 10 h
Method in brief: as §1

[1] = P. mirabilis, 10 h cultivation at 37° C.
[2] = P. aeruginosa, 10 h cultivation at 37° C.
[3] = M. catarrhalis, 10 h cultivation at 37° C.
[4] = A. hydrophila, 10 h cultivation at 37° C.
[5] = E. cloacae, 10 h cultivation at 37° C.
[6] = E. coli BL21, 10 h cultivation at 37° C.
[7] = P. vulgaris, 10 h cultivation at 37° C.
[8] = K. pneumonia, 10 h cultivation at 37° C.
[9] = C. diversus, 10 h cultivation at 37° C.
[10] = S. marcescens, 10 h cultivation at 37° C.

Substance	MIC (Proteus mirabilis; [1])	MIC (Pseudomonas aeruginosa; [2])	MIC (E. coli DH5α)	MIC (Moraxella catarrhalis; [3])	MIC (Aeromonas hydrophila; [4])	MIC (Enterobacter cloacae; [5])	MIC (E. coli BL21; [6])	MIC (Proteus vulgaris; [7])	MIC (Klebsiella pneumonia; [8])	MIC (Citrobacter diversus; [9])	MIC (Serratia marcescens; [10])	also measured
PRT920 (DVDECQLMPNACQNGGTCHNTHGGYNCVCVNGWTGEDCS; listed as Homo sapiens)	50 µg/mL	25 µg/mL	12.5 µg/mL	12.5 µg/mL	25 µg/mL	12.5 µg/mL	25 µg/mL	12.5 µg/mL	50 µg/mL	50 µg/mL	50 µg/mL	
PRT444 (GISECSSQPCQNGGTCVEGVNQYRCICPPGRTGNRCQ; listed as Homo sapiens)			25 µg/mL									MIC against P. mirabilis (Proteus mirabilis; 5×10^5 CFU/mL): 12.5 µg/mL; MIC against P. aeruginosa (Pseudomonas aeruginosa; 5×10^5 CFU/mL): 25 µg/mL; MIC against M. catarrhalis (Moraxella catarrhalis; 5×10^5 CFU/mL): 50 µg/mL; MIC against A. hydrophila (Aeromonas hydrophila; 5×10^5 CFU/mL): 50 µg/mL; MIC against E. cloacae (Enterobacter cloacae; 5×10^5 CFU/mL): 12.5 µg/mL; MIC against E. coli BL21 (E. coli BL21; 5×10^5 CFU/mL): 12.5 µg/mL; MIC against P. vulgaris (Proteus vulgaris; 5×10^5 CFU/mL): 50 µg/mL; MIC against K. pneumonia (Klebsiella pneumonia; 5×10^5 CFU/mL): 50 µg/mL; MIC against C. diversus (Citrobacter diversus; 5×10^5 CFU/mL): 12.5 µg/mL; MIC against S. marcescens (Serratia marcescens; 5×10^5 CFU/mL): 12.5 µg/mL
PRT1291 (PIHACISNPCKHGGTCHLKEGEEDGFWCICADGFEGENCE; listed as Homo sapiens)			50 µg/mL									MIC against P. mirabilis (Proteus mirabilis; Proteus mirabilis, 5×10^5 CFU/mL): 50 µg/mL; MIC against P. aeruginosa (Pseudomonas aeruginosa; Pseudomonas aeruginosa, 5×10^5 CFU/mL): 25 µg/mL; MIC against M. catarrhalis (Moraxella catarrhalis; Moraxella catarrhalis, 5×10^5 CFU/mL): 12.5 µg/mL; MIC against A. hydrophila (Aeromonas hydrophila; Aeromonas hydrophila, 5×10^5 CFU/mL): 12.5 µg/mL; MIC against E. cloacae (Enterobacter cloacae; Enterobacter cloacae, 5×10^5 CFU/mL): 25 µg/mL; MIC against E. coli BL21 (E. coli BL21; E. coli BL21, 5×10^5 CFU/mL): 100 µg/mL; MIC against P. vulgaris (Proteus vulgaris; Proteus vulgaris, 5×10^5 CFU/mL): 12.5 µg/mL; MIC against K. pneumonia (Klebsiella pneumonia; Klebsiella pneumonia, 5×10^5 CFU/mL): 50 µg/mL; MIC against C. diversus (Citrobacter diversus; Citrobacter diversus, 5×10^5 CFU/mL): 50 µg/mL; MIC against S. marcescens (Serratia marcescens; Serratia marcescens, 5×10^5 CFU/mL): 12.5 µg/mL
PRT1043 (HGPNCSQECRCHNGGLCDRFTGQCRCAPGYTGDRCR; listed as Homo sapiens)	12.5 µg/mL	25 µg/mL	50 µg/mL	25 µg/mL	25 µg/mL	25 µg/mL	12.5 µg/mL	50 µg/mL	50 µg/mL	50 µg/mL	50 µg/mL	
PRT808 (YGPNCSSICSCNNGGTCSPVDGSCTCKEGWQGLDCT; listed as Homo sapiens)			25 µg/mL									MIC (μg/mL) P. mirabilis (Proteus mirabilis; P. mirabilis, 10 h cultivation at 37° C., 5×10^5 CFU/mL): 25 µg/mL; MIC (μg/mL) P. aeruginosa (Pseudomonas aeruginosa; P. aeruginosa, 10 h cultivation at 37° C., 5×10^5 CFU/mL): 12.5 µg/mL; MIC (μg/mL) M. catarrhalis (Moraxella catarrhalis; M. catarrhalis, 10 h cultivation at 37° C., 5×10^5 CFU/mL): 50 µg/mL; MIC (μg/mL) A. hydrophila (Aeromonas hydrophila; A. hydrophila, 10 h cultivation at 37° C., 5×10^5 CFU/mL): 12.5 µg/mL; MIC (μg/mL) E. cloacae (Enterobacter cloacae; E. cloacae, 10 h cultivation at 37° C., 5×10^5 CFU/mL): 25 µg/mL; MIC (μg/mL) E. coli BL21 (E. coli BL21; E. coli BL21, 10 h cultivation at 37° C., 5×10^5 CFU/mL): 50 µg/mL; MIC (μg/mL) P. vulgaris (Proteus vulgaris; P. vulgaris, 10 h cultivation at 37° C., 5×10^5 CFU/mL): 12.5 µg/mL; MIC (μg/mL) K. pneumonia (Klebsiella pneumonia; K. pneumonia, 10 h cultivation at 37° C., 5×10^5 CFU/mL): 50 µg/mL; MIC (μg/mL) C. diversus (Citrobacter diversus; C. diversus, 10 h cultivation at 37° C., 5×10^5 CFU/mL): 25 µg/mL; MIC (μg/mL) S. marcescens (Serratia marcescens; S. marcescens, 10 h cultivation at 37° C., 5×10^5 CFU/mL): 50 µg/mL
PRT1016 (RAGPCPPRGCSNGGTCQLMPEKDSTFHLCLCPPGFIGPDCE; listed as Homo sapiens)	50 µg/mL	50 µg/mL	12.5 µg/mL	100 µg/mL	25 µg/mL	12.5 µg/mL	25 µg/mL	25 µg/mL	25 µg/mL	50 µg/mL	12.5 µg/mL	

— patent US9833497B2, “Human originated EGF domain proteins and use of the same” (CHENGDU SOURCEBIO LIMITED-LIABILITY COMPANY, priority 2013, dated 2017)
